Test results taken from ChEMBL document CHEMBL5226393, “Semisynthesis of 22,25-Epoxylanostane Triterpenoids: Structure Revision and Protective Effects against Oxygen-Glucose Deprivation/Reoxygenation Injury in H9c2 Cells” (2023).
Activity calls are given as the source filed them. The calls are words filed in the database; no cut-off is given here.

Experiments:
H9c2 [1] = experiment: Cardioprotective activity against OGD/R-induced cell injury in rat H9c2 cells assessed as increase in cell viability at 20 uM subjected to OGD condition for 6 hrs followed by compound treatment and measured after 6 hrs by MTT assay; format: functional, cell-based
H9c2 [2] = experiment: Induction of apoptosis in OGD/R-induced rat H9c2 cells assessed as viable cells at 100 uM preincubated with compound followed by treatment under OGD condition by Annexin V-FITC staining based flow cytometric analysis (reference value: 93.9%); format: functional; conditions: read-out: Activity
H9c2 [3] = experiment: Cardioprotective activity against OGD/R-induced cell injury in rat H9c2 cells assessed as increase in cell viability at 100 uM subjected to OGD condition for 6 hrs followed by compound treatment and measured after 6 hrs by MTT assay relative to control; format: functional
H9c2 [4] = experiment: Induction of apoptosis in OGD/R-induced rat H9c2 cells assessed as late apoptotic cells at 100 uM preincubated with compound followed by treatment under OGD condition by Annexin V-FITC staining based flow cytometric analysis (reference value: 4.14%); format: functional
H9c2 [5] = experiment: Induction of apoptosis in OGD/R-induced rat H9c2 cells assessed as early apoptotic cells at 100 uM preincubated with compound followed by treatment under OGD condition by Annexin V-FITC staining based flow cytometric analysis (reference value: 0.97%); format: functional
H9c2 [6] = experiment: Induction of apoptosis in OGD/R-induced rat H9c2 cells assessed as total apoptotic cells at 100 uM preincubated with compound for 24 hrs followed by treatment under OGD condition by Annexin V-FITC staining based flow cytometric analysis relative to control; format: functional
H9c2 [7] = experiment: Induction of apoptosis in OGD/R-induced rat H9c2 cells assessed as necrotic cells at 100 uM preincubated with compound followed by treatment under OGD condition by Annexin V-FITC staining based flow cytometric analysis (reference value: 1.01%); format: functional
H9c2 [8] = experiment: Cardioprotective activity against OGD/R-induced cell injury in rat H9c2 cells assessed as increase in cell viability at 20 uM subjected to OGD condition for 6 hrs followed by compound treatment and measured after 6 hrs by MTT assay relative to control; format: functional
H9c2 [9] = experiment: Induction of mitochondrial membrane potential loss in OGD/R-induced rat H9c2 cells assessed as increase in red to green fluorescence ratio by JC-1 staining based microscopic analysis relative to control; format: functional
H9c2 [10] = experiment: Induction of apoptosis in OGD/R-induced rat H9c2 cells assessed as early apoptotic cells at 5 uM preincubated with compound followed by treatment under OGD condition by Annexin V-FITC staining based flow cytometric analysis (reference value: 0.97%); format: functional
H9c2 [11] = experiment: Induction of apoptosis in OGD/R-induced rat H9c2 cells assessed as late apoptotic cells at 10 uM preincubated with compound followed by treatment under OGD condition by Annexin V-FITC staining based flow cytometric analysis (reference value: 4.14%); format: functional
H9c2 [12] = experiment: Induction of apoptosis in OGD/R-induced rat H9c2 cells assessed as total apoptotic cells at 10 uM preincubated with compound for 24 hrs followed by treatment under OGD condition by Annexin V-FITC staining based flow cytometric analysis relative to control; format: functional
H9c2 [13] = experiment: Induction of apoptosis in OGD/R-induced rat H9c2 cells assessed as total apoptotic cells at 5 uM preincubated with compound for 24 hrs followed by treatment under OGD condition by Annexin V-FITC staining based flow cytometric analysis relative to control; format: functional
H9c2 [14] = experiment: Induction of apoptosis in OGD/R-induced rat H9c2 cells assessed as viable cells at 10 uM preincubated with compound followed by treatment under OGD condition by Annexin V-FITC staining based flow cytometric analysis (reference value: 93.9%); format: functional; conditions: read-out: Activity
H9c2 [15] = experiment: Induction of apoptosis in OGD/R-induced rat H9c2 cells assessed as necrotic cells at 5 uM preincubated with compound followed by treatment under OGD condition by Annexin V-FITC staining based flow cytometric analysis (reference value: 1.01%); format: functional
H9c2 [16] = experiment: Induction of apoptosis in OGD/R-induced rat H9c2 cells assessed as viable cells at 5 uM preincubated with compound followed by treatment under OGD condition by Annexin V-FITC staining based flow cytometric analysis (reference value: 93.9%); format: functional; conditions: read-out: Activity
H9c2 [17] = experiment: Induction of apoptosis in OGD/R-induced rat H9c2 cells assessed as necrotic cells at 10 uM preincubated with compound followed by treatment under OGD condition by Annexin V-FITC staining based flow cytometric analysis (reference value: 1.01%); format: functional
H9c2 [18] = experiment: Cardioprotective activity against OGD/R-induced cell injury in rat H9c2 cells assessed as increase in cell viability at 5 uM subjected to OGD condition for 6 hrs followed by compound treatment and measured after 6 hrs by MTT assay relative to control; format: functional
H9c2 [19] = experiment: Induction of apoptosis in OGD/R-induced rat H9c2 cells assessed as early apoptotic cells at 10 uM preincubated with compound followed by treatment under OGD condition by Annexin V-FITC staining based flow cytometric analysis (reference value: 0.97%); format: functional
H9c2 [20] = experiment: Induction of apoptosis in OGD/R-induced rat H9c2 cells assessed as late apoptotic cells at 5 uM preincubated with compound followed by treatment under OGD condition by Annexin V-FITC staining based flow cytometric analysis (reference value: 4.14%); format: functional

C[C@H]([C@@H]1C[C@@H](O)C(C)(C)O1)[C@H]1CC[C@@]2(C)C3=CC[C@H]4C(C)(C)[C@@H](O)CC[C@]4(C)C3=CC[C@]12C
Activity (H9c2 [1]): inactive

CC1=Nc2ccc(Cl)cc2S(=O)(=O)N1 [DIAZOXIDE]
viability at 100 µM (H9c2 [2]): 81.3%
Activity (H9c2 [3]): 14.9%
Activity (H9c2 [4]): 12.7%
Activity (H9c2 [5]): 5.41%
Activity (H9c2 [6]): 17.3%
Activity (H9c2 [7]): 0.58%

C[C@H]([C@@H]1C[C@H](O)C(C)(C)O1)[C@H]1CC[C@@]2(C)C3=CC[C@H]4C(C)(C)[C@@H](O)CC[C@]4(C)C3=CC[C@]12C
Activity (H9c2 [1]): inactive

C[C@@H]([C@H]1CC[C@@]2(C)C3=C(CC[C@]12C)[C@@]1(C)CC[C@H](O)C(C)(C)[C@@H]1CC3)[C@H]1CCC(C)(C)O1
Activity (H9c2 [8]): 18.7%
Activity (H9c2 [9]): 90%
Activity (H9c2 [10]): 2.55%
Activity (H9c2 [11]): 8.97%
Activity (H9c2 [12]): 14.5%
Activity (H9c2 [13]): 17.4%
viability at 10 µM (H9c2 [14]): 85.9%
Activity (H9c2 [15]): 0.52%
viability at 5 µM (H9c2 [16]): 83.7%
Activity (H9c2 [17]): 0.035%
Activity (H9c2 [18]): 11.4%
Activity (H9c2 [19]): 5.12%
Activity (H9c2 [20]): 13.3%

C=C(C)[C@@H]1CC=C2C(=CC[C@]3(C)[C@@H]([C@H](C)[C@H]4CCC(C)(C)O4)CC[C@@]23C)[C@@]1(C)CCC(=O)O
Activity (H9c2 [8]): 17.7%
Activity (H9c2 [18]): 6.4%

C[C@@H]([C@H]1CC[C@@]2(C)C3=C(CC[C@]12C)[C@@]1(C)CC[C@H](O)C(C)(C)[C@@H]1CC3)[C@H]1C[C@H](O)C(C)(C)O1
Activity (H9c2 [1]): inactive

C[C@@H]([C@H]1CC[C@@]2(C)C3=CC[C@H]4C(C)(C)[C@@H](O)CC[C@]4(C)C3=CC[C@]12C)[C@H]1CCC(C)(C)O1
Activity (H9c2 [8]): 11.4%

C[C@@H]([C@H]1CC[C@@]2(C)C3=C(CC[C@]12C)[C@@]1(C)CC[C@H](O)C(C)(C)[C@@H]1CC3)[C@H]1C[C@@H](O)C(C)(C)O1
Activity (H9c2 [1]): inactive

C[C@@H]([C@H]1CC[C@@]2(C)C3=CC[C@H]4C(C)(C)[C@@H](O)CC[C@]4(C)C3=CC[C@]12C)[C@H]1C[C@@H](O)C(C)(C)O1
Activity (H9c2 [1]): inactive

C[C@H]([C@@H]1CCC(C)(C)O1)[C@H]1CC[C@@]2(C)C3=C(CC[C@]12C)[C@@]1(C)CC[C@H](O)C(C)(C)[C@@H]1CC3
Activity (H9c2 [8]): 10.8%

C[C@H]([C@@H]1C[C@@H](O)C(C)(C)O1)[C@H]1CC[C@@]2(C)C3=C(CC[C@]12C)[C@@]1(C)CC[C@H](O)C(C)(C)[C@@H]1CC3
Activity (H9c2 [1]): inactive

C[C@@H]([C@H]1CC[C@@]2(C)C3=CC[C@H]4C(C)(C)[C@@H](O)CC[C@]4(C)C3=CC[C@]12C)[C@H]1C[C@H](O)C(C)(C)O1
Activity (H9c2 [1]): inactive

C[C@H]([C@@H]1C[C@H](O)C(C)(C)O1)[C@H]1CC[C@@]2(C)C3=C(CC[C@]12C)[C@@]1(C)CC[C@H](O)C(C)(C)[C@@H]1CC3
Activity (H9c2 [1]): inactive

C[C@H]([C@@H]1CCC(C)(C)O1)[C@H]1CC[C@@]2(C)C3=CC[C@H]4C(C)(C)[C@@H](O)CC[C@]4(C)C3=CC[C@]12C
Activity (H9c2 [8]): 10.6%
